Drawing on paper PMC10121968, “Fosgonimeton, a Novel Positive Modulator of the HGF/MET System, Promotes Neurotrophic and Procognitive Effects in Models of Dementia” (Neurotherapeutics, 2022), this text covers oral bioavailability, cell scattering behavior and TNF-α release for one compound.

Non-standard residues stand in square brackets, D forms with d. Residues, ends and D or L forms follow the SMILES beside them. *: point of attachment. Hexanoyl = CCCCCC(=O)*; Ahx = NCCCCCC(=O)O

A short description of one data set: Oral bioavailability. To be noted: in vivo.
The test system of another data set is MDCK cells. The experiment in a line: MDCK cell scatter behavior assay. In kind it is cell-based, canine. To be noted: HGF 10 ng/mL + fosgo-AM 10 pM, 100 pM and 1 nM, 24 h, vs HGF alone. On the procedure:
Madin-Darby canine kidney (MDCK, ATCC CCL-34) cells were grown at 37 °C, 5% CO2 in Eagle’s Minimum Essential Medium (EMEM) + 10% FBS in T-75 flasks until 80% confluent. Cells were then plated at 1400 cells/well in black-walled, clear-bottom 96-well plates and grown at 37 °C under 5% CO2 for 24 h. Growth media were replaced by serum-free media for 2 h before treatment. Treatments containing HGF and fosgo-AM were made in serum-free media and applied in quintuplicates for 24 h at 37 °C under 5% CO2. Cells were then fixed in chilled 100% EtOH at 4 °C for 20 min and then stained with wheat germ agglutinin conjugated to CF488 (WGA488, Biotium, 29,022–1, Fremont, California) at […] in phosphate-buffered saline (PBS) for 30 min at RT to visualize whole-cell surfaces. Cultures were then imaged with an iCys instrument (iCyte, Thor Labs, Newton, New Jersey) and analyzed with the ImageJ (National Institutes of Health) particle count feature. Scattering behavior was quantified by normalizing particle counts against total stained area. […] Data were assessed for normality (Shapiro–Wilk) and homoscedasticity (Brown-Forsythe). The statistical difference from HGF alone was determined by one-way ANOVA with Dunnett’s multiple comparison post-test with an alpha value of 0.05 (Prism, GraphPad).

Another data set deals with TNF-α. In words: TNF-α release in LPS-challenged THP-1 macrophages (ELISA). The conditions noted are these: 1 µM, 20 min pretreatment, LPS 50 ng/mL 24 h, vs LPS + vehicle. It counts as cell-based, human. On the procedure:
To determine the effect of fosgo-AM on LPS-induced cytokine release, we sought to determine the levels of interleukin-1β (IL-1β), interleukin-6 (IL-6), and tumor necrosis factor-α (TNF-α) in LPS-challenged THP-1–differentiated macrophages in the presence and absence of fosgo-AM. THP-1 monocytes were grown at 37 °C, 5% CO2 in Roswell Park Memorial Institute (RPMI) medium + 10% FBS until approximately 80% confluent. Cells were seeded in polystyrene-treated 96-well cell culture plates at approximately 50,000 cells/well in 100-µL complete media. 100 µL Phorbol myristate acetate was then added to each well for a final concentration of 100 ng/mL. The plate was then incubated for 3 days at 37 °C, 5% CO2 to prime the monocytes into macrophages. […] For cytokine quantification, cell culture supernatant was assayed by HTRF kits to assess levels of IL-1β (Human IL-1β kit, #62HIL1BPEG, Cisbio, Codolet, France) and IL-6 (Human IL-6 kit, 62HIL06PET, Cisbio, Codolet, France), and by ELISA (Human TNF-α ELISA kit, KHC3011, ThermoFisher, Waltham, Massachusetts) to determine the levels of TNF-α. […] Fluorescence emission at 2 different wavelengths (665 nm and 620 nm) were measured on an Envision plate reader (PerkinElmer, Waltham, Massachusetts), and HTRF ratio of the acceptor and donor emission signals for each well was calculated as follows: HTRF ratio = (665 nm/620 nm) × 10,000. […]

With `CCCCCC(=O)N[C@@H](Cc1ccc(O)cc1)C(=O)N[C@H](C(=O)NCCCCCC(N)=O)[C@@H](C)CC` [fosgo-AM] (Hexanoyl-Tyr-Ile-[Ahx]-NH2), the oral bioavailability result in the data set “Oral bioavailability” is on record as “poor oral bioavailability”. Also, the cell scattering behavior entry with MDCK cells is listed as “significant cell scattering”. The TNF-α release result in the data set with TNF-α is listed as “significant decrease”.
